# Assay results taken from patent publication US10030047B2 (Hoffmann-La Roche Inc., priority 2015, dated 2018).
# Tested on: A. baumannii strain ATCC19606
# Assay: Minimum inhibitory concentration (MIC) determination, microbroth dilution (CLSI)
# Format: cell-based
# Settings: Acinetobacter baumannii; A. baumannii ATCC19606; CAMHB; read after 20 hours; >=80% growth inhibition; read-out: ATCC19606 MIC
# Method in brief: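 CLSI broth microdilution in cation-adjusted Mueller Hinton broth with twofold compound dilutions and ~5×10^5 CFU/ml inoculum, incubated at 35±2 °C. MIC read after 20 h as lowest concentration inhibiting ≥80% of growth, by eye and OD 600 nm.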
row,MIC,Structure (SMILES)
1,1 µg/mL,"CN1C(=O)[C@H](CCCCN)NC(=O)[C@H](CNC(N)=O)NCc2cccnc2Sc2c(Cl)cc(Cl)cc2CNC(=O)[C@@H]1Cc1c[nH]c2ccccc12 [Example 180, [(11S,14S,17S)-14-(4-Amino-butyl)-23,25-dichloro-17-(1H-indol-3-ylmethyl)-16-methyl-12,15,18-trioxo-2-thia-4,10,13,16,19-pentaaza-tricyclo[19.4.0.0*3,8*]pentacosa-1(25),3(8),4,6,21,23-hexaen-11-ylmethyl]-urea]"
2,0.25 µg/mL,"Cc1[nH]c2ccccc2c1C[C@H]1C(=O)NCc2cc(-c3ccncc3)cc(Cl)c2Sc2ncccc2CN[C@@H](CCCN)C(=O)N[C@@H](CCCCN)C(=O)N1C [Example 181, (11S,14S,17S)-14-(4-Amino-butyl)-11-(3-amino-propyl)-25-chloro-16-methyl-17-(2-methyl-1H-indol-3-ylmethyl)-23-pyridin-4-yl-2-thia-4,10,13,16,19-pentaaza-tricyclo[19.4.0.0*3,8*]pentacosa-1(25),3(8),4,6,21,23-hexaene-12,15,18-trione]"
3,0.5 µg/mL,"Cc1[nH]c2ccccc2c1C[C@H]1C(=O)NCc2cc(-c3ccnc(Cl)c3)cc(Cl)c2Sc2ncccc2CN[C@@H](CCCN)C(=O)N[C@@H](CCCCN)C(=O)N1C [Example 182, (11S,14S,17S)-14-(4-Amino-butyl)-11-(3-amino-propyl)-25-chloro-23-(2-chloro-pyridin-4-yl)-16-methyl-17-(2-methyl-1H-indol-3-ylmethyl)-2-thia-4,10,13,16,19-pentaaza-tricyclo[19.4.0.0*3,8*]pentacosa-1(25),3(8),4,6,21,23-hexaene-12,15,18-trione]"
4,0.25 µg/mL,"Cc1[nH]c2ccccc2c1C[C@H]1C(=O)NCc2cc(-c3ccnc(F)c3)cc(Cl)c2Sc2ncccc2CN[C@@H](CCCN)C(=O)N[C@@H](CCCCN)C(=O)N1C [Example 183, (11S,14S,17S)-14-(4-Amino-butyl)-11-(3-amino-propyl)-25-chloro-23-(2-fluoro-pyridin-4-yl)-16-methyl-17-(2-methyl-1H-indol-3-ylmethyl)-2-thia-4,10,13,16,19-pentaaza-tricyclo[19.4.0.0*3,8*]pentacosa-1(25),3(8),4,6,21,23-hexaene-12,15,18-trione]"
5,2 µg/mL,"CN1C(=O)[C@H](CCCCN)NC(=O)[C@H](CCC(N)=O)NCc2cccnc2Sc2c(Cl)cc(-c3ccccc3)cc2CNC(=O)[C@@H]1Cc1c[nH]c2ccccc12 [Example 184, 3-[(11S,14S,17S)-14-(4-Amino-butyl)-25-chloro-17-(1H-indol-3-ylmethyl)-16-methyl-12,15,18-trioxo-23-phenyl-2-thia-4,10,13,16,19-pentaaza-tricyclo[19.4.0.0*3,8*]pentacosa-1(25),3(8),4,6,21,23-hexaen-11-yl]-propionamide]"
6,0.5 µg/mL,"CN1C(=O)[C@H](CCCCN)NC(=O)[C@H](CCCN)NCc2cccnc2Sc2c(Cl)cc(C#N)cc2CNC(=O)[C@@H]1Cc1c[nH]c2ccccc12 [Example 185, (11S,14S,17S)-14-(4-Amino-butyl)-11-(3-amino-propyl)-25-chloro-17-(1H-indol-3-ylmethyl)-16-methyl-12,15,18-trioxo-2-thia-4,10,13,16,19-pentaaza-tricyclo[19.4.0.0*3,8*]pentacosa-1(25),3(8),4,6,21,23-hexaene-23-carbonitrile]"
7,0.5 µg/mL,"Cc1noc(C)c1-c1cc(Cl)c2c(c1)CNC(=O)[C@H](Cc1c[nH]c3ccccc13)N(C)C(=O)[C@H](CCCCN)NC(=O)[C@H](CCCN)NCc1cccnc1S2 [Example 186, (11S,14S,17S)-14-(4-Amino-butyl)-11-(3-amino-propyl)-25-chloro-23-(3,5-dimethyl-isoxazol-4-yl)-17-(1H-indol-3-ylmethyl)-16-methyl-2-thia-4,10,13,16,19-pentaaza-tricyclo[19.4.0.0*3,8*]pentacosa-1(25),3(8),4,6,21,23-hexaene-12,15,18-trione]"

# The next lines start with the compound.
row,Structure (SMILES),MIC
1,"CN1C(=O)[C@H](CCCCN)NC(=O)[C@H](CCCN)NCc2cccnc2Sc2c(Cl)cc(-c3ccc(S(C)(=O)=O)cc3)cc2CNC(=O)[C@@H]1Cc1c[nH]c2ccccc12 [Example 172, (11S,14S,17S)-14-(4-Amino-butyl)-11-(3-amino-propyl)-25-chloro-17-(1H-indol-3-ylmethyl)-23-(4-methanesulfonyl-phenyl)-16-methyl-2-thia-4,10,13,16,19-pentaaza-tricyclo[19.4.0.0*3,8*]pentacosa-1(25),3(8),4,6,21,23-hexaene-12,15,18-trione]",0.5 µg/mL
2,"CN1C(=O)[C@H](CCCCN)NC(=O)[C@H](CCCN)NCc2cccnc2Sc2c(Cl)cc(-c3cncc(S(C)(=O)=O)c3)cc2CNC(=O)[C@@H]1Cc1c[nH]c2ccccc12 [Example 173, (11S,14S,17S)-14-(4-Amino-butyl)-11-(3-amino-propyl)-25-chloro-17-(1H-indol-3-ylmethyl)-23-(5-methanesulfonyl-pyridin-3-yl)-16-methyl-2-thia-4,10,13,16,19-pentaaza-tricyclo[19.4.0.0*3,8*]pentacosa-1(25),3(8),4,6,21,23-hexaene-12,15,18-trione]",2 µg/mL
3,"CN1C(=O)[C@H](CCCCN)NC(=O)[C@H](CCCN)NCc2cccnc2Sc2c(Cl)cc(N3CCC(N)C3)cc2CNC(=O)[C@@H]1Cc1c[nH]c2ccccc12 (stereo partly drawn) [Example 174, (11S,14S,17S)-14-(4-Amino-butyl)-11-(3-amino-propyl)-23-(3-amino-pyrrolidin-1-yl)-25-chloro-17-(1H-indol-3-ylmethyl)-16-methyl-2-thia-4,10,13,16,19-pentaaza-tricyclo[19.4.0.0*3,8*]pentacosa-1(25),3(8),4,6,21,23-hexaene-12,15,18-trione]",16 µg/mL
4,"Cc1n[nH]c(C)c1-c1cc(Cl)c2c(c1)CNC(=O)[C@H](Cc1c[nH]c3ccccc13)N(C)C(=O)[C@H](CCCCN)NC(=O)[C@H](CCCN)NCc1cccnc1S2 [Example 175, (11S,14S,17S)-14-(4-Amino-butyl)-11-(3-amino-propyl)-25-chloro-23-(3,5-dimethyl-1H-pyrazol-4-yl)-17-(1H-indol-3-ylmethyl)-16-methyl-2-thia-4,10,13,16,19-pentaaza-tricyclo[19.4.0.0*3,8*]pentacosa-1(25),3(8),4,6,21,23-hexaene-12,15,18-trione]",2 µg/mL
5,"CN1C(=O)[C@H](CCCCN)NC(=O)[C@H](CCCN)NCc2cccnc2Sc2c(Cl)cc(-c3ccnc(F)c3)cc2CNC(=O)[C@@H]1Cc1c[nH]c2ccccc12 [Example 177, (11S,14S,17S)-14-(4-Amino-butyl)-11-(3-amino-propyl)-25-chloro-23-(2-fluoro-pyridin-4-yl)-17-(1H-indol-3-ylmethyl)-16-methyl-2-thia-4,10,13,16,19-pentaaza-tricyclo[19.4.0.0*3,8*]pentacosa-1(25),3(8),4,6,21,23-hexaene-12,15,18-trione]",1 µg/mL
6,"Cc1ccc(-c2cc3c(cn2)Sc2ncccc2CN[C@@H](CCCN)C(=O)N[C@@H](CCCCN)C(=O)N(C)[C@@H](Cc2c[nH]c4ccccc24)C(=O)NC3)cn1 [Example 178, (7S,10S,13S)-13-((1H-Indol-3-yl)methyl)-10-(4-aminobutyl)-7-(3-aminopropyl)-12-methyl-18-(6-methylpyridin-3-yl)-6,7,9,10,12,13,15,16-octahydrodipyrido[2,3-b:4′,3′-p][1,5,8,11,14]thiatetraazacycloheptadecine-8,11,14(5H)-trione]",32 µg/mL
7,CN1C(=O)[C@H](CCCCN)NC(=O)[C@H](CCCN)NCc2ccccc2Sc2ncc(Cl)cc2CNC(=O)[C@@H]1Cc1c[nH]c2ccccc12 [Example 179],32 µg/mL
